System: HSSY-II complex spheroid growth, percent test/control
Experiment: Anticancer human tumor HSSY-II cell line growth inhibition [Asc];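 further: spheroids exposed to drug for 7 days before reading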
Settings: for IC50: curve of first compound; for viability, T/C: stronger effect = lower value; active means viability on the fitted dose curve at most 10% of control; inactive means the rest
Procedure, shortened: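 Complex spheroids combining tumor cells with HUVEC endothelial cells and human MSCs, at 37 degrees C, 5% CO2; agents tested alone or combined, half-log dilutions from at or near clinical Cmax, or 10 microM if Cmax unknown.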

[1] = second compound 0.1 µM, first compound 0.000316 µM
[2] = second compound 0.1 µM, first compound 0.001 µM
[3] = second compound 0.1 µM, first compound 0.00316 µM
[4] = second compound 0.1 µM, first compound 0.01 µM
[5] = second compound 0.1 µM, first compound 0.0316 µM
[6] = second compound 0.1 µM, first compound 0.1 µM
[7] = second compound 0.316 µM, first compound 0.000316 µM
[8] = second compound 0.316 µM, first compound 0.001 µM
[9] = second compound 0.316 µM, first compound 0.00316 µM
[10] = second compound 0.316 µM, first compound 0.01 µM
[11] = second compound 0.316 µM, first compound 0.0316 µM
[12] = second compound 0.316 µM, first compound 0.1 µM
[13] = second compound 1 µM, first compound 0.000316 µM
[14] = second compound 1 µM, first compound 0.001 µM
[15] = second compound 1 µM, first compound 0.00316 µM
[16] = second compound 1 µM, first compound 0.01 µM
[17] = second compound 1 µM, first compound 0.0316 µM
[18] = second compound 1 µM, first compound 0.1 µM
[19] = second compound 3.16 µM, first compound 0.0316 µM
[20] = second compound 3.16 µM, first compound 0.1 µM
[21] = second compound 10 µM, first compound 0.0316 µM
[22] = second compound 10 µM, first compound 0.1 µM

NC1CCC(NC2CC2c2ccccc2)CC1 (stereo not given) + CNC(C)C(=O)NC1CN(S(=O)(=O)c2cccc(S(=O)(=O)N3CCC4CCC(C(=O)NC(c5ccccc5)c5ccccc5)N4C(=O)C(NC(=O)C(C)NC)C3)c2)CCC2CCC(C(=O)NC(c3ccccc3)c3ccccc3)N2C1=O
inactive: viability, T/C (second compound 0.01 µM, first compound 0.000316 µM) 59.5% | viability, T/C (second compound 0.01 µM, first compound 0.001 µM) 59.1% | viability, T/C (second compound 0.01 µM, first compound 0.00316 µM) 48.6% | viability, T/C (second compound 0.01 µM, first compound 0.01 µM) 54.9% | viability, T/C (second compound 0.01 µM, first compound 0.0316 µM) 56.4% | viability, T/C (second compound 0.01 µM, first compound 0.1 µM) 52.1% | viability, T/C (second compound 0.0316 µM, first compound 0.000316 µM) 43.9% | viability, T/C (second compound 0.0316 µM, first compound 0.001 µM) 43.3% | viability, T/C (second compound 0.0316 µM, first compound 0.00316 µM) 46.4% | viability, T/C (second compound 0.0316 µM, first compound 0.01 µM) 49.3% | viability, T/C (second compound 0.0316 µM, first compound 0.0316 µM) 45.5% | viability, T/C (second compound 0.0316 µM, first compound 0.1 µM) 48.7% | viability, T/C [1] 56.2% | viability, T/C [2] 46.3% | viability, T/C [3] 48.4% | viability, T/C [4] 49.2% | viability, T/C [5] 39% | viability, T/C [6] 49.9% | viability, T/C [7] 51.2% | viability, T/C [8] 44.2% | viability, T/C [9] 49.4% | viability, T/C [10] 43.4% | viability, T/C [11] 47.1% | viability, T/C [12] 47.6% | viability, T/C [13] 38.7% | viability, T/C [14] 47.1% | viability, T/C [15] 51.8% | viability, T/C [16] 41.2% | viability, T/C [17] 46.6% | viability, T/C [18] 52.7%
> 100 nM: IC50 (second compound 0.01 µM)
0.67 nM: IC50 (second compound 0.1 µM)
< 0.316 nM: IC50 (second compound 0.0316 µM) | IC50 (second compound 0.316 µM) | IC50 (second compound 1 µM)

NC1CCC(NC2CC2c2ccccc2)CC1 (stereo not given) + Cc1c(S(C)(=O)=O)c(-c2cc(F)cc(N3CCN(c4ccc(NS(=O)(=O)c5ccc(NC(CCN6CCC(C(=O)OCCCP(=O)(O)O)CC6)CSc6ccccc6)c(S(=O)(=O)C(F)(F)F)c5)cc4)CC3)c2)c(-c2ccc(Cl)cc2)n1C(C)C
> 100 nM: IC50 (second compound 0.1 µM) | IC50 (second compound 0.316 µM) | IC50 (second compound 1 µM) | IC50 (second compound 3.16 µM) | IC50 (second compound 10 µM)
inactive: viability, T/C [1] 58.9% | viability, T/C [2] 69.2% | viability, T/C [3] 64% | viability, T/C [4] 56.5% | viability, T/C [5] 60.3% | viability, T/C [6] 66.5% | viability, T/C [7] 77% | viability, T/C [8] 67.3% | viability, T/C [9] 58.9% | viability, T/C [10] 60.6% | viability, T/C [11] 60% | viability, T/C [12] 64.5% | viability, T/C [13] 70.3% | viability, T/C [14] 60.8% | viability, T/C [15] 57.5% | viability, T/C [16] 59% | viability, T/C [17] 60.6% | viability, T/C [18] 62.8% | viability, T/C (second compound 3.16 µM, first compound 0.000316 µM) 73.1% | viability, T/C (second compound 3.16 µM, first compound 0.001 µM) 62.1% | viability, T/C (second compound 3.16 µM, first compound 0.00316 µM) 60.8% | viability, T/C (second compound 3.16 µM, first compound 0.01 µM) 61.1% | viability, T/C [19] 59.9% | viability, T/C [20] 61.4% | viability, T/C (second compound 10 µM, first compound 0.000316 µM) 66% | viability, T/C (second compound 10 µM, first compound 0.001 µM) 66.5% | viability, T/C (second compound 10 µM, first compound 0.00316 µM) 70.2% | viability, T/C (second compound 10 µM, first compound 0.01 µM) 57.9% | viability, T/C [21] 62.3% | viability, T/C [22] 66.6%

C=CC(=O)N1CCN(c2nc(=O)n(-c3c(C)ccnc3C(C)C)c3nc(-c4c(O)cccc4F)c(F)cc23)C(C)C1 (stereo not given) + Cc1c(S(C)(=O)=O)c(-c2cc(F)cc(N3CCN(c4ccc(NS(=O)(=O)c5ccc(NC(CCN6CCC(C(=O)OCCCP(=O)(O)O)CC6)CSc6ccccc6)c(S(=O)(=O)C(F)(F)F)c5)cc4)CC3)c2)c(-c2ccc(Cl)cc2)n1C(C)C
> 10000 nM: IC50 (second compound 0.1 µM) | IC50 (second compound 0.316 µM) | IC50 (second compound 1 µM) | IC50 (second compound 3.16 µM) | IC50 (second compound 10 µM)
inactive: viability, T/C [5] 116% | viability, T/C [6] 121% | viability, T/C (second compound 0.1 µM, first compound 0.316 µM) 105% | viability, T/C (second compound 0.1 µM, first compound 1 µM) 111% | viability, T/C (second compound 0.1 µM, first compound 3.16 µM) 97.8% | viability, T/C (second compound 0.1 µM, first compound 10 µM) 67.7% | viability, T/C [11] 114% | viability, T/C [12] 110% | viability, T/C (second compound 0.316 µM, first compound 0.316 µM) 105% | viability, T/C (second compound 0.316 µM, first compound 1 µM) 99.9% | viability, T/C (second compound 0.316 µM, first compound 3.16 µM) 114% | viability, T/C (second compound 0.316 µM, first compound 10 µM) 67.8% | viability, T/C [17] 104% | viability, T/C [18] 111% | viability, T/C (second compound 1 µM, first compound 0.316 µM) 96.4% | viability, T/C (second compound 1 µM, first compound 1 µM) 100% | viability, T/C (second compound 1 µM, first compound 3.16 µM) 105% | viability, T/C (second compound 1 µM, first compound 10 µM) 51.3% | viability, T/C [19] 109% | viability, T/C [20] 99.9% | viability, T/C (second compound 3.16 µM, first compound 0.316 µM) 101% | viability, T/C (second compound 3.16 µM, first compound 1 µM) 107% | viability, T/C (second compound 3.16 µM, first compound 3.16 µM) 103% | viability, T/C (second compound 3.16 µM, first compound 10 µM) 55% | viability, T/C [21] 100% | viability, T/C [22] 99.2% | viability, T/C (second compound 10 µM, first compound 0.316 µM) 93.1% | viability, T/C (second compound 10 µM, first compound 1 µM) 110% | viability, T/C (second compound 10 µM, first compound 3.16 µM) 96.7% | viability, T/C (second compound 10 µM, first compound 10 µM) 61.3%

Cn1ncnc1[C@H]1c2n[nH]c(=O)c3cc(F)cc(c23)N[C@@H]1c1ccc(F)cc1 + CCN1C(C(=O)NC23CCC(C(=O)O)(CC2)CC3)C(c2cccc(Cl)c2F)C2(C(=O)Nc3cc(Cl)ccc32)C12CCCCC2
10.7 nM: IC50 (second compound 0.03 µM)
active: viability, T/C (second compound 0.0949 µM, first compound 0.1 µM) 10.2% | viability, T/C (second compound 0.3 µM, first compound 0.0316 µM) 6.69% | viability, T/C (second compound 0.3 µM, first compound 0.1 µM) 5.88% | viability, T/C (second compound 0.949 µM, first compound 0.000316 µM) 8.57% | viability, T/C (second compound 0.949 µM, first compound 0.001 µM) 7.9% | viability, T/C (second compound 0.949 µM, first compound 0.00316 µM) 7.26% | viability, T/C (second compound 0.949 µM, first compound 0.01 µM) 5.4% | viability, T/C (second compound 0.949 µM, first compound 0.0316 µM) 6.11% | viability, T/C (second compound 0.949 µM, first compound 0.1 µM) 6.09% | viability, T/C (second compound 3 µM, first compound 0.000316 µM) 2.41% | viability, T/C (second compound 3 µM, first compound 0.001 µM) 2.9% | viability, T/C (second compound 3 µM, first compound 0.00316 µM) 4.02% | viability, T/C (second compound 3 µM, first compound 0.01 µM) 2.59% | viability, T/C (second compound 3 µM, first compound 0.0316 µM) 1.88% | viability, T/C (second compound 3 µM, first compound 0.1 µM) 4.41%
< 0.316 nM: IC50 (second compound 0.3 µM) | IC50 (second compound 0.949 µM) | IC50 (second compound 3 µM)
2.01 nM: IC50 (second compound 0.0949 µM)
inactive: viability, T/C (second compound 0.03 µM, first compound 0.000316 µM) 91.9% | viability, T/C (second compound 0.03 µM, first compound 0.001 µM) 89.6% | viability, T/C (second compound 0.03 µM, first compound 0.00316 µM) 68.1% | viability, T/C (second compound 0.03 µM, first compound 0.01 µM) 52.8% | viability, T/C (second compound 0.03 µM, first compound 0.0316 µM) 31.4% | viability, T/C (second compound 0.03 µM, first compound 0.1 µM) 19.6% | viability, T/C (second compound 0.0949 µM, first compound 0.000316 µM) 61.4% | viability, T/C (second compound 0.0949 µM, first compound 0.001 µM) 53.6% | viability, T/C (second compound 0.0949 µM, first compound 0.00316 µM) 47.1% | viability, T/C (second compound 0.0949 µM, first compound 0.01 µM) 31% | viability, T/C (second compound 0.0949 µM, first compound 0.0316 µM) 15.4% | viability, T/C (second compound 0.3 µM, first compound 0.000316 µM) 28.5% | viability, T/C (second compound 0.3 µM, first compound 0.001 µM) 28.6% | viability, T/C (second compound 0.3 µM, first compound 0.00316 µM) 18.2% | viability, T/C (second compound 0.3 µM, first compound 0.01 µM) 10.4%
